In brackets after ≈: the same amount, converted by molar mass.
Columns and labels:
[1] = tested on: M. tuberculosis ATCC 27294; test: Antitubercular broth microdilution MIC; format: cell-based; details: Mycobacterium tuberculosis; M. tuberculosis ATCC 27294 (H37Rv); read-out: Minimum inhibitory concentration (MIC)
MDA-MB-435 = test: cells; details: Homo sapiens, MDA-MB-435, 48 h
[2] = Hemolytic activity, spectrophotometric; format: cell-based, human; details: human, human red blood cells (huRBC), 5% hematocrit, 200 μg/mL, 37 °C
SK-MEL-28 = test: cells; details: Homo sapiens, SK-MEL-28, 48 h
NCI/ADR-RES = test: cells; details: Homo sapiens, 48 h
RXF 393 = test: cells; details: Homo sapiens, RXF 393, 48 h
CCRF-CEM = test: cells; details: Homo sapiens, 48 h
K-562 = test: cells; details: Homo sapiens, K562, 48 h, K-562, 48 h
PC-3 = test: cells; details: Homo sapiens, PC-3, 48 h
EKVX = test: cells; details: Homo sapiens, 48 h
HS 578T = test: cells; details: Homo sapiens, 48 h
BT-549 = test: cells; details: Homo sapiens, BT-549, 48 h
IGROV1 = test: cells; details: Homo sapiens, IGROV-1, 48 h
UACC-62 = test: cells; details: Homo sapiens, UACC-62, 48 h
NCI-H322M = test: cells; details: Homo sapiens, 48 h
CAKI-1 = test: cells; details: Homo sapiens, CAKI-1, 48 h
SF-268 = test: cells; details: Homo sapiens, SF-268, 48 h
[3] = tested on: N. gonorrhoeae ATCC 49226; test: MIC on GC agar plates; format: cell-based, Neisseria gonorrhoeae; details: Neisseria gonorrhoeae, ATCC49226, read-out: MIC
Method in brief: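 N. gonorrhoeae (1 × 10^4 CFU) was spotted onto IsoVitaleX-supplemented (1%) GC agar containing graded compound levels. The lowest inhibitory concentration was recorded as the MIC, with oxidase testing used to verify growth, and each assay was done in duplicate on at least two separate occasions.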

ACHN = test: cells; details: Homo sapiens, 48 h
OVCAR-8 = test: cells; details: Homo sapiens, OVCAR-8, 48 h, read-out: LC50
OVCAR-3 = test: cells; details: Homo sapiens, OVCAR-3, 48 h
SNB-19 = test: cells; details: Homo sapiens, SNB-19, 48 h
HOP-62 = test: cells; details: Homo sapiens, HOP-62, 48 h
SW-620 = test: cells; details: Homo sapiens, SW-620, 48 h
HCC-2998 = test: cells; details: Homo sapiens, HCC 2998, 48 h
MALME-3M = test: cells; details: Homo sapiens, 48 h

`Cc1ccc(C2CC(c3ccc(S(=O)(=O)NCCNc4nc(Nc5ccc(F)cc5)nc(N(C)C)n4)cc3)=Nc3c(N)nc(N)nc3N2)cc1` (centres unmarked) [31b] showed an MIC [1] of 0.6 µg/mL (≈ 0.86 µM), a GI50 (MDA-MB-435) of 8.79 µM and a CC50 (MDA-MB-435; read-out: LC50) of over 100 µM. The hemolysis at 24 h, 200 µg/mL [2] was 1.7%, the GI50 (SK-MEL-28) was 26.9 µM and the CC50 (SK-MEL-28; read-out: LC50) was over 100 µM. It also gave a GI50 (NCI/ADR-RES) of over 100 µM, a CC50 (NCI/ADR-RES; read-out: LC50) of over 100 µM and a GI50 (RXF 393) of 2.27 µM. The CC50 (RXF 393; read-out: LC50) was 9.12 µM, the GI50 (CCRF-CEM) was 2.81 µM and the CC50 (CCRF-CEM; read-out: LC50) was over 100 µM. It also gave a GI50 (K-562) of 2.75 µM, a GI50 (PC-3) of 3.33 µM and a CC50 (PC-3; read-out: LC50) of over 100 µM. The GI50 (EKVX) was 5.84 µM, the CC50 (EKVX; read-out: LC50) was over 100 µM and the GI50 (HS 578T) was 19.4 µM. For the same compound, the CC50 (HS 578T; read-out: LC50) was over 100 µM, the GI50 (BT-549) was 5.46 µM and the CC50 (BT-549; read-out: LC50) was 59.4 µM. For the same compound, the GI50 (IGROV1) was 64.4 µM, the CC50 (IGROV1; read-out: LC50) was over 100 µM and the GI50 (UACC-62) was 20.9 µM. It also gave a CC50 (UACC-62; read-out: LC50) of over 100 µM, a GI50 (NCI-H322M) of over 100 µM and a CC50 (NCI-H322M; read-out: LC50) of over 100 µM. It also gave a GI50 (CAKI-1) of 8.06 µM, a CC50 (CAKI-1; read-out: LC50) of over 100 µM and a GI50 (SF-268) of 7.53 µM. It also gave a CC50 (SF-268; read-out: LC50) of over 100 µM, an MIC [3] of 8 µg/mL (≈ 11.5 µM) and a GI50 (ACHN) of over 100 µM. For the same compound, the CC50 (ACHN; read-out: LC50) was over 100 µM, the CC50 (OVCAR-8) was over 100 µM and the GI50 (OVCAR-3) was 9.93 µM. The CC50 (OVCAR-3; read-out: LC50) was over 100 µM, the GI50 (SNB-19) was 13.1 µM and the CC50 (SNB-19; read-out: LC50) was over 100 µM. For the same compound, the GI50 (HOP-62) was over 100 µM, the CC50 (HOP-62; read-out: LC50) was over 100 µM and the GI50 (SW-620) was 8.04 µM. The CC50 (SW-620; read-out: LC50) was over 100 µM, the GI50 (HCC-2998) was 2.93 µM and the CC50 (HCC-2998; read-out: LC50) was 41.1 µM. The GI50 (MALME-3M) was 4.65 µM and the CC50 (MALME-3M; read-out: LC50) was 33.2 µM.
